For 41 compounds, IC50 and EC50 results are on record in patent US20230203044A1, “PYRAZOLO[1,5-D][1,2,4]TRIAZINE-5(4H)-ACETAMIDES AS INHIBITORS OF THE NLRP3 INFLAMMASOME” (JANSSEN PHARMACEUTICA NV, priority 2020, published 2023).

Where two headings read alike, the source gives them in different places. A value given as a limit tells only on which side of the number the result lay.

One experiment deals with NLRP3 inflammasome. The experiment in a line: PBMC assay: IL-1β in LPS-stimulated human PBMCs (MSD). Particulars: read-out: IL1β IC50. It counts as cell-based. Here is the method: The activity of a compound according to the present invention can be assessed by in vitro methods.
Peripheral venous blood was collected from healthy individuals and human peripheral blood mononuclear cells (PBMCs) were isolated from blood by Ficoll-Histopaque (Sigma-Aldrich, A0561) density gradient centrifugation. After isolation, PBMCs were stored in liquid nitrogen for later use. Upon thawing, PBMC cell viability was determined in growth medium (RPMI media supplemented with 10% fetal bovine serum, 1% Pen-Strep and 1% L-glutamine). […] PBMCs were added at a density of 7.5×10^4 cells per well and incubated for 30 min in a 5% CO2 incubator at 37° C. LPS stimulation was performed by addition of 100 ng/ml LPS (final concentration, Invivogen, tlrl-smlps) for 6 hrs followed by collection of cellular supernatant and the analysis of IL-1β (μM) and TNF cytokines levels (μM) via MSD technology according to manufacturers' guidelines (MSD, K151A0H).

Another experiment concerns TNF. Put plainly: PBMC assay: TNF cytokine levels in LPS-stimulated human PBMCs (MSD). Format: cell-based. The note with it: 100 ng/ml LPS for 6 hrs, TNF in supernatant via MSD. Here is the method:
Peripheral venous blood was collected from healthy individuals and human peripheral blood mononuclear cells (PBMCs) were isolated from blood by Ficoll-Histopaque (Sigma-Aldrich, A0561) density gradient centrifugation. After isolation, PBMCs were stored in liquid nitrogen for later use. Upon thawing, PBMC cell viability was determined in growth medium (RPMI media supplemented with 10% fetal bovine serum, 1% Pen-Strep and 1% L-glutamine). Compounds were spotted in a 1:3 serial dilution in DMSO and diluted to the final concentration in 30 μl medium in 96 well plates (Falcon, 353072). PBMCs were added at a density of 7.5×10^4 cells per well and incubated for 30 min in a 5% CO2 incubator at 37° C. LPS stimulation was performed by addition of 100 ng/ml LPS (final concentration, Invivogen, tlrl-smlps) for 6 hrs followed by collection of cellular supernatant and the analysis of IL-1β (μM) and TNF cytokines levels (μM) via MSD technology according to manufacturers' guidelines (MSD, K151A0H).
The IC50 values (for IL-1β) and EC50 values (TNF) were obtained on compounds of the invention/examples, and are depicted in the following table: […]

Where [1] appears, read: human PBMCs, 100 ng/ml LPS for 6 hrs, IL-1β in supernatant via MSD.

With `CN(C)c1nn(CC(=O)Nc2ccc3nncn3c2)c(=O)c2cc(C3CC3)nn12` [Final Cpd 37], in the experiment on NLRP3 inflammasome (setting [1]), the IC50 (commonly the point on the concentration scale where inhibition reaches its midpoint) is 0.56 µM. The EC50 – broadly, the midpoint of the concentration-response curve – with TNF was > 10 µM.
Consider `COCCN(C)c1nn(CC(=O)Nc2ccc3nncn3c2)c(=O)c2cc(C3CC3)nn12` [Final Cpd 38], for which the IC50 with NLRP3 inflammasome (setting [1]) is > 10 µM. Further, the half-maximal effective concentration (EC50) in the experiment on TNF is > 10 µM.
With `COCCNc1nn(CC(=O)Nc2ccc3nncn3c2)c(=O)c2cc(C3CC3)nn12` [Final Cpd 39], the IC50 in the experiment with NLRP3 inflammasome (setting [1]) was determined as 2.49 µM. Also, the half-maximal effective concentration (EC50) in the experiment on TNF was > 10 µM.
On the same counts, the results for `CC(C)c1nn(CC(=O)N[C@H]2C[C@@](C)(O)C2)c(=O)c2cc(NCC(F)(F)F)nn12` [Final Cpd 41] are 0.88 µM and > 10 µM.
On the same counts, the results for `CC(C)c1nn(CC(=O)Nc2ccc3nncn3c2)c(=O)c2cc(NCC(F)(F)F)nn12` [Final Cpd 42] are 0.22 µM and > 10 µM.
As to `CC(C)c1nn(CC(=O)N[C@H]2C[C@@](C)(O)C2)c(=O)c2c(F)c(C3CC3)nn12` [Final Cpd 43], the IC50 with NLRP3 inflammasome (setting [1]) is 1.06 µM. For the same compound, the EC50 in the experiment on TNF is > 10 µM.
The matching figures for `CC(C)c1nn(CC(=O)Nc2ccc3nncn3c2)c(=O)c2c(F)c(C3CC3)nn12` [Final Cpd 44]: 0.62 µM and > 10 µM.
On the same counts, the results for `Cc1nn(CC(=O)NCc2ccc(F)cc2)c(=O)c2cc(C3CC3)nn12` [Final Cpd 47] are > 10 µM and > 10 µM.
On the same counts, the results for `Cc1nn(CC(=O)Nc2ccncn2)c(=O)c2cc(C3CC3)nn12` [Final Cpd 48] are 0.89 µM and > 10 µM.
Consider `Cc1nn(CC(=O)NCc2cccnc2)c(=O)c2cc(C3CC3)nn12` [Final Cpd 49], for which, in the experiment on NLRP3 inflammasome (setting [1]), the IC50 was > 10 µM. Also, the EC50 in the experiment with TNF is > 10 µM.
As to `Cc1nn(CC(=O)N[C@]2(Cc3ccccc3)C[C@H](O)C2)c(=O)c2cc(C3CC3)nn12` [Final Cpd 50], in the experiment with NLRP3 inflammasome (setting [1]), the IC50 was > 10 µM. The concentration for a half-maximal effect (EC50) in the experiment on TNF is > 10 µM.
Turning to `Cc1nn(CC(=O)NC2(C(F)(F)F)CCOC2)c(=O)c2cc(C3CC3)nn12` (stereo not shown) [Final Cpd 51], in the experiment with NLRP3 inflammasome (setting [1]), the IC50 was > 10 µM. The half-maximal effective concentration (EC50) in the experiment on TNF was > 10 µM.
`Cc1nn(CC(=O)N[C@H]2C[C@H](N(C)Cc3ccccc3)C2)c(=O)c2cc(C3CC3)nn12` [Final Cpd 52]: the IC50 in the experiment on NLRP3 inflammasome (setting [1]) came out at 2.31 µM. For the same compound, in the experiment on TNF, the EC50 was > 10 µM.
Take `Cc1nn(CC(=O)N[C@H]2C[C@@H](OCc3ccccc3Cl)C2)c(=O)c2cc(C3CC3)nn12` [Final Cpd 53]: in the experiment on NLRP3 inflammasome (setting [1]), the IC50 was > 10 µM. Moreover, the EC50 in the experiment on TNF is > 10 µM.
Take `Cc1nn(CC(=O)N[C@@H]2COC[C@H]2N2CCCCC2)c(=O)c2cc(C3CC3)nn12` [Final Cpd 54]: the IC50 in the experiment on NLRP3 inflammasome (Homo sapiens, 6 h) was > 10 µM. Further, the 50% effective concentration (EC50) in the experiment on TNF was > 10 µM.
On to `Cc1nn(CC(=O)N[C@@H]2COC[C@@H]2CC(C)C)c(=O)c2cc(C3CC3)nn12` [Final Cpd 55], for which, in the experiment with NLRP3 inflammasome (setting [1]), the IC50 was > 10 µM. In addition, the EC50 in the experiment on TNF is > 10 µM.
Take `Cc1nn(CC(=O)N[C@@H]2CCN(c3nc4cccnc4o3)C2)c(=O)c2cc(C3CC3)nn12` [Final Cpd 56]: the IC50 in the experiment with NLRP3 inflammasome (setting [1]) stood at 6.97 µM. Moreover, in the experiment with TNF, the EC50 was > 10 µM.
Turning to `Cc1nn(CC(=O)NC2(CO)CCCC2)c(=O)c2cc(C3CC3)nn12` [Final Cpd 57], the IC50 in the experiment with NLRP3 inflammasome (setting [1]) was > 10 µM. Further, in the experiment on TNF, the EC50 is > 10 µM.
Regarding `Cc1noc(C)c1[C@@H](c1ccccc1)N1CC(NC(=O)Cn2nc(C)n3nc(C4CC4)cc3c2=O)C1` [Final Cpd 58], in the experiment with NLRP3 inflammasome (setting [1]), the IC50 worked out at 9.41 µM. Moreover, the EC50 with TNF is > 10 µM.
The matching figures for `Cc1nn(CC(=O)N[C@H]2CCN(Cc3ccncc3)C2)c(=O)c2cc(C3CC3)nn12` [Final Cpd 59]: > 10 µM and > 10 µM.
The matching figures for `Cc1nn(CC(=O)NC2CN([C@H](c3ccccc3)c3cncnc3)C2)c(=O)c2cc(C3CC3)nn12` [Final Cpd 60]: > 10 µM and > 10 µM.
In the case of `COC(=O)C12CC(NC(=O)Cn3nc(C)n4nc(C5CC5)cc4c3=O)(C1)C2` [Final Cpd 61], the IC50 with NLRP3 inflammasome (setting [1]) worked out at 0.064 µM. The half-maximal effective concentration (EC50) in the experiment with TNF is > 10 µM.
For `Cc1nn(CC(=O)NC2(C)CCC2)c(=O)c2cc(C3CC3)nn12` [Final Cpd 62], the IC50 with NLRP3 inflammasome (setting [1]) was found to be 8.53 µM. For the same compound, in the experiment on TNF, the EC50 is > 10 µM.
For the compound `Cc1nn(CC(=O)NC2(c3ccc(Cl)cc3Cl)CCC2)c(=O)c2cc(C3CC3)nn12` [Final Cpd 63], in the experiment with NLRP3 inflammasome (setting [1]), the IC50 was 7.89 µM. The EC50 in the experiment with TNF was > 10 µM.
`Cc1nn(CC(=O)N[C@]23CC[C@H](CC2)C3)c(=O)c2cc(C3CC3)nn12` [Final Cpd 64]: the IC50 in the experiment on NLRP3 inflammasome (setting [1]) amounted to 5.5 µM. Further, in the experiment on TNF, the EC50 is > 10 µM.
As for `Cc1nn(CC(=O)NC2CCCC2O)c(=O)c2cc(C3CC3)nn12` (stereo not shown) [Final Cpd 65], the IC50 in the experiment on NLRP3 inflammasome (setting [1]) came to 4.19 µM. In addition, the EC50 in the experiment on TNF was > 10 µM.
`Cc1nn(CC(=O)NC2CC(c3ccc(O)cc3)C2)c(=O)c2cc(C3CC3)nn12` (stereo not shown) [Final Cpd 66]: the IC50 in the experiment with NLRP3 inflammasome (setting [1]) turned out to be 3.55 µM. The EC50 in the experiment on TNF was > 10 µM.
The matching figures for `Cc1nn(CC(=O)NC23CCCC2C2CCCC23)c(=O)c2cc(C3CC3)nn12` (stereo not shown) [Final Cpd 67]: > 10 µM and > 10 µM.
Regarding `CCCCc1nn(CC(=O)Nc2ccc3nncn3c2)c(=O)c2cc(C3CC3)nn12` [Final Cpd 68], the IC50 in the experiment on NLRP3 inflammasome (setting [1]) was determined as 0.78 µM. Besides, the EC50 in the experiment with TNF was > 10 µM.
On the same counts, the results for `CC(C)Cc1nn(CC(=O)Nc2ccc3nncn3c2)c(=O)c2cc(C3CC3)nn12` [Final Cpd 69] are ~2.45 µM and > 10 µM.
As to `CC(C)c1nn(CC(=O)Nc2ccncn2)c(=O)c2cc(C(C)(C)C)nn12` [Final Cpd 70], the IC50 in the experiment with NLRP3 inflammasome (setting [1]) came out at 0.62 µM. Also, the EC50 in the experiment on TNF is > 10 µM.
The matching figures for `CC(C)c1nn(CC(=O)N[C@H]2C[C@@](C)(O)C2)c(=O)c2cc(C(C)(C)C)nn12` [Final Cpd 71]: 0.54 µM and > 10 µM.
The matching figures for `CCNc1cc2c(=O)n(CC(=O)Nc3ccncn3)nc(C(C)C)n2n1` [Final Cpd 72]: 0.054 µM and > 10 µM.
As to `CCNc1cc2c(=O)n(CC(=O)N[C@H]3C[C@@](C)(O)C3)nc(C(C)C)n2n1` [Final Cpd 73], the IC50 in the experiment on NLRP3 inflammasome (setting [1]) was determined as 0.11 µM. The EC50 in the experiment on TNF was > 10 µM.
The matching figures for `CCNc1cc2c(=O)n(CC(=O)Nc3ccc(=O)n(C)n3)nc(C(C)C)n2n1` [Final Cpd 74]: 0.22 µM and > 10 µM.
Take `CCNc1cc2c(=O)n(CC(=O)Nc3ccc4nncn4c3)nc(C(C)C)n2n1` [Final Cpd 75]: in the experiment with NLRP3 inflammasome (setting [1]), the IC50 worked out at 0.024 µM. For the same compound, a half-maximal response in the experiment on TNF (EC50) required 7.04 µM.
The matching figures for `CCc1nn(CC(=O)NC2CC2)c(=O)c2ccnn12` [Final Cpd 76, N-cyclopropyl-2-(7-ethyl-4-oxopyrazolo[1,5-d][1,2,4]triazin-5(4H)-yl)acetamide]: > 10 µM and > 10 µM.
The matching figures for `CCc1nn(CC(=O)Nc2ccccc2OC)c(=O)c2ccnn12` [Final Cpd 77]: > 10 µM and > 10 µM.
As to `CCc1nn(CC(=O)NC2CCCC2)c(=O)c2ccnn12` [Final Cpd 78], the IC50 with NLRP3 inflammasome (setting [1]) was > 10 µM. In addition, the EC50 in the experiment on TNF was > 10 µM.
Regarding `CCc1nn(CC(=O)Nc2ccncc2)c(=O)c2ccnn12` [Final Cpd 79], the IC50 in the experiment on NLRP3 inflammasome (setting [1]) was > 10 µM. Moreover, in the experiment with TNF, the 50% effective concentration (EC50) is > 10 µM.
As to `CC(C)c1nn(CC(=O)Nc2ccc3nncn3c2)c(=O)c2cc(C3CC3)nn12` [Final Cpd 80], the IC50 with NLRP3 inflammasome (setting [1]) was found to be 0.08 µM. The EC50 with TNF was > 10 µM.
